Patent publication US10596166B2, “Combination composition comprising huperzine” (priority 2015, dated 2020)

System: TH positive dopaminergic neurons injured with MPP+
Assay: MPP+ toxicity on TH positive dopaminergic neurons of primary mesencephalic culture
Assay type: cell-based, rat
Settings: MPP+ 4 μM, 48 h
Procedure: Rat dopaminergic neurons were cultured as described by Schinelli et al., J Neurochem. 1988 June; 50(6):1900-7 and Visanji et al., 2008 [previously cited].
Briefly, the midbrains obtained from 15-days old rat embryos (Janvier Labs, France) were dissected under a microscope. The embryonic midbrains were removed and placed in ice-cold medium of Leibovitz (L15, Pan Biotech) containing 2% of Penicillin-Streptomycin (PS, Pan Biotech) and 1% of bovine serum albumin (BSA, Pan Biotech). The ventral portion of the mesencephalic flexure, a region of the developing brain rich in dopaminergic neurons, was used for the cell preparations.
The midbrains were dissociated by trypsinisation for 20 min at 37° C. (Trypsin 0.05% EDTA 0.02%, PanBiotech). The reaction was stopped by the addition of Dulbecco's modified Eagle's medium (DMEM, PanBiotech) containing DNAase I grade II (0.1 mg/ml, PanBiotech) and 10% of foetal calf serum (FCS, Gibco). Cells were then mechanically dissociated by 3 passages through a 10 ml pipette. Cells were then centrifuged at 180×g for 10 min at +4° C. on a layer of BSA (3.5%) in L15 medium. The supernatant was discarded and the cell pellets were re-suspended in a defined culture medium consisting of Neurobasal (Invitrogen) supplemented with B27 (2%, Invitrogen, Batch: 1589889), L-glutamine (2 mM, PanBiotech) and 2% of PS solution and 10 ng/ml of Brain-derived neurotrophic factor (BDNF, PanBiotech) and 1 ng/ml of Glial-Derived Neurotrophic Factor (GDNF, PanBiotech). Viable cells were counted in a Neubauer cytometer using the trypan blue exclusion test. The cells were seeded at a density of 40 000 cells/well in 96 well-plates pre-coated with poly-L-lysine (Corning Biocoat) and maintained in a humidified incubator at 37° C. in 5% CO2/95% air atmosphere. Half of the medium was changed every 2 days with fresh medium.
On day 6 of culture, the medium was removed and fresh medium was added, without or with MPP^+ (Sigma) at 4 μM diluted in control medium, 6 wells per condition were assessed.
On day 6 of culture, NSP01-001-E001 (2.5, 5, 50, 500 ng/ml, 2.5, 5, 25, 33.3 μg/ml) were solved or diluted in culture medium and then pre-incubated with primary mesencephalic neurons for 1 hour before the MPP^+ application. MPP^+ solution was added to a final concentration of 4 μM diluted in control medium.
After 48 hours intoxication, the cells were then fixed by a solution of 4% paraformaldehyde (PFA, Sigma) in PBS (PAN), pH=7.3 for 20 min at room temperature. The cells were washed again twice in PBS, and then were permeabilized and non-specific sites were blocked with a solution of PBS containing 0.1% of saponin (Sigma) and 1% FCS for 15 min at room temperature. Then, cells were incubated with Monoclonal Anti-Tyrosine Hydroxylase (TH, Sigma) antibody produced in mouse at dilution of 1/10000 in PBS containing 1% FCS, 0.1% saponin, for 2 h at room temperature.
The immunolabeled cultures were automatically examined with ImageXpress (Molecular Devices) equipped with a LED at ×10 magnification. For each condition (6 culture wells), 20 automatically fields per well (representing ˜80% of the total surface of the well) were analyzed. The total number of TH neurons was automatically analyzed using MetaXpress software (Molecular Devices). Data were expressed in percentage of control conditions (no intoxication, no MPP^+=100%) in order to express the MPP^+ injury. All values were expressed as mean±SEM (s.e. mean) of the 6 wells. Graphs and statistical analyses were performed on the different conditions (ANOVA followed by Dunnett's or PLSD Fisher's test when allowed, using GraphPad Prism software).
The protocol used in these assays is the same as described in example 4.
HA (1, 10, 100 nM, 1, 10, 100 μM), CA (5, 50, 500 pM, 5, 50, 500 nM, 1 μM), FA (100 pM, 1, 10, 100 nM, 1, 10, 100 μM and 1 mM) and mixtures thereof were solved or diluted in culture medium and then pre-incubated with primary mesencephalic neurons for 1 hour before the MPP^+ application. […]

## O=C(O)/C=C/c1ccc(O)c(O)c1 [CA, caffeic acid]
5 nM up to 1 μM
  TH positive neuron survival: large and significant protective effect

## COc1cc(/C=C/C(=O)O)ccc1O [FA, ferulic acid]
  concentration of maximal effect (bell shape curve): 10 µM
100 pM up to 100 nM
  TH positive neuron survival: inactive
From 1 μM to 1 mM
  TH positive neuron survival: significant protective effect

## C/C=C1\[C@H]2C=C(C)C[C@]1(N)c1ccc(=O)[nH]c1C2 [HA, huperzine A, reference compound]
1 nM
  TH positive neuron survival: inactive
100 nM
  TH positive neuron survival: > 90%
100 μM (in some well toxicity occurred)
  TH positive neuron survival: did not show some protective effect
From 10 nM up to 10 μM
  TH positive neuron survival: large and significant protective effect
